# pIC50: −log10 of the molar value.
# Key:
# Experiment in all cases: cells
# Type in all cases: functional, cell-based, Homo sapiens
# COLO-824 = details: Homo sapiens, COLO-824
# Description: SANGER: Inhibition of human COLO-824 cell growth in a cell viability assay.
# DEL = details: Homo sapiens, DEL;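 note: growth inhibition of the human DEL cell line, read out with a cell viability assay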
# Description: SANGER: Inhibition of human DEL cell growth in a cell viability assay.
# DSH1 = details: Homo sapiens, DSH1;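 note: growth inhibition of human DSH1 cells, measured with a cell viability readout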
# Description: SANGER: Inhibition of human DSH1 cell growth in a cell viability assay.
# DU-4475 = details: Homo sapiens, DU-4475
# Description: SANGER: Inhibition of human DU-4475 cell growth in a cell viability assay.
# EW-13 = details: Homo sapiens, EW-13;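 note: growth inhibition of EW-13 cells, read out with a cell viability assay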
# Description: SANGER: Inhibition of human EW-13 cell growth in a cell viability assay.
# GCIY = details: Homo sapiens, GCIY;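 note: growth inhibition of the human GCIY cell line, read out by a cell viability assay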
# Description: SANGER: Inhibition of human GCIY cell growth in a cell viability assay.
# GI-1 = details: Homo sapiens, GI-1;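 note: growth inhibition of human GI-1 cells, measured with a cell viability readout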
# Description: SANGER: Inhibition of human GI-1 cell growth in a cell viability assay.
# GOTO = details: Homo sapiens, GOTO;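 note: growth inhibition of GOTO cells, read out by a cell viability assay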
# Description: SANGER: Inhibition of human GOTO cell growth in a cell viability assay.
# HCC2218 = details: Homo sapiens, HCC2218;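 note: cell viability assay read-out, with IC50 given as the concentration that inhibits growth of the cell line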
# Description: SANGER: Inhibition of human HCC2218 cell growth in a cell viability assay.
# IST-MES1 = details: Homo sapiens, IST-MES1;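 note: growth inhibition of IST-MES1 cells, measured with a cell viability assay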
# Description: SANGER: Inhibition of human IST-MES1 cell growth in a cell viability assay.
# IST-SL1 = details: Homo sapiens, IST-SL1;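 note: growth inhibition of human IST-SL1 cells, read out with a cell viability assay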
# Description: SANGER: Inhibition of human IST-SL1 cell growth in a cell viability assay.
# J-RT3-T3-5 = details: Homo sapiens, J-RT3-T3-5;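 note: cell viability assay measuring growth inhibition of human J-RT3-T3-5 cells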
# Description: SANGER: Inhibition of human J-RT3-T3-5 cell growth in a cell viability assay.
# K5 = details: Homo sapiens, K5
# Description: SANGER: Inhibition of human K5 cell growth in a cell viability assay.
# KLE = details: Homo sapiens, KLE;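 note: growth inhibition of human KLE cells, read out with a cell viability assay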
# Description: SANGER: Inhibition of human KLE cell growth in a cell viability assay.
# KP-N-YS = details: Homo sapiens, KP-N-YS;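 note: cell viability assay measuring inhibition of cell line growth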
# Description: SANGER: Inhibition of human KP-N-YS cell growth in a cell viability assay.
# KU812 cell line = details: Homo sapiens, KU812;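 note: growth inhibition of KU812 cells, read out with a cell viability assay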
# Description: SANGER: Inhibition of human KU812 cell growth in a cell viability assay.
# L-428 = details: Homo sapiens, L-428
# Description: SANGER: Inhibition of human L-428 cell growth in a cell viability assay.
# LAMA-84 = details: Homo sapiens, LAMA-84;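 note: growth inhibition of LAMA-84 cells, read out with a cell viability assay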
# Description: SANGER: Inhibition of human LAMA-84 cell growth in a cell viability assay.
# LNCaP-Clone-FGC = details: Homo sapiens, LNCaP-Clone-FGC
# Description: SANGER: Inhibition of human LNCaP-Clone-FGC cell growth in a cell viability assay.
# MMAC-SF = details: Homo sapiens, MMAC-SF;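 note: growth inhibition of human MMAC-SF cells, read out with a cell viability assay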
# Description: SANGER: Inhibition of human MMAC-SF cell growth in a cell viability assay.
# MN-60 = details: Homo sapiens, MN-60;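 note: growth inhibition of the MN-60 cell line, determined with a cell viability assay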
# Description: SANGER: Inhibition of human MN-60 cell growth in a cell viability assay.
# MZ1-PC = details: Homo sapiens, MZ1-PC;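 note: cell viability assay measuring growth inhibition of human MZ1-PC cells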
# Description: SANGER: Inhibition of human MZ1-PC cell growth in a cell viability assay.
# NB13 = details: Homo sapiens, NB13;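 note: cell viability readout measuring growth inhibition of human NB13 cells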
# Description: SANGER: Inhibition of human NB13 cell growth in a cell viability assay.
# NCI-H1355 = details: Homo sapiens, NCI-H1355;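 note: growth inhibition of human NCI-H1355 cells, read out by a cell viability assay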
# Description: SANGER: Inhibition of human NCI-H1355 cell growth in a cell viability assay.
# NCI-H1838 = details: Homo sapiens, NCI-H1838;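 note: growth inhibition of NCI-H1838 cells, determined with a cell viability readout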
# Description: SANGER: Inhibition of human NCI-H1838 cell growth in a cell viability assay.
# NCI-H2126 = details: Homo sapiens, NCI-H2126;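 note: growth inhibition of the cancer cell line, determined with a cell viability readout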
# Description: SANGER: Inhibition of human NCI-H2126 cell growth in a cell viability assay.
# NCI-H226 = details: Homo sapiens, NCI-H226;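 note: cell viability read-out used to gauge growth inhibition of the cells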
# Description: SANGER: Inhibition of human NCI-H226 cell growth in a cell viability assay.
# NCI-H82 = details: Homo sapiens, NCI-H82;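 note: growth inhibition of NCI-H82 cells, measured with a cell viability readout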
# Description: SANGER: Inhibition of human NCI-H82 cell growth in a cell viability assay.
# SNU1 = details: Homo sapiens, SNU1;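 note: growth inhibition of human NCI-SNU-1 cells, measured with a cell viability assay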
# Description: SANGER: Inhibition of human NCI-SNU-1 cell growth in a cell viability assay.
# NH-12 = details: Homo sapiens, NH-12;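 note: growth inhibition of NH-12 cells, read out with a cell viability assay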
# Description: SANGER: Inhibition of human NH-12 cell growth in a cell viability assay.
# NKM-1 = details: Homo sapiens, NKM-1;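 note: growth inhibition of NKM-1 cells, read out with a cell viability assay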
# Description: SANGER: Inhibition of human NKM-1 cell growth in a cell viability assay.
# OMC-1 = details: Homo sapiens, OMC-1;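 note: growth inhibition of the OMC-1 cell line, measured by a cell viability assay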
# Description: SANGER: Inhibition of human OMC-1 cell growth in a cell viability assay.
# ONS-76 = details: Homo sapiens, ONS-76;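 note: growth inhibition of human ONS-76 cells, read out with a cell viability assay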
# Description: SANGER: Inhibition of human ONS-76 cell growth in a cell viability assay.
# OVCAR-4 = details: Homo sapiens, OVCAR-4;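 note: growth inhibition of human OVCAR-4 cells, measured with a cell viability assay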
# Description: SANGER: Inhibition of human OVCAR-4 cell growth in a cell viability assay.
# QIMR-WIL = details: Homo sapiens, QIMR-WIL;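 note: growth inhibition of QIMR-WIL cells, read out with a cell viability assay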
# Description: SANGER: Inhibition of human QIMR-WIL cell growth in a cell viability assay.
# RCC10RGB = details: Homo sapiens, RCC10RGB;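 note: growth inhibition of human RCC10RGB cells, read out by a cell viability assay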
# Description: SANGER: Inhibition of human RCC10RGB cell growth in a cell viability assay.
# RPMI-8866 = details: Homo sapiens, RPMI-8866
# Description: SANGER: Inhibition of human RPMI-8866 cell growth in a cell viability assay.
# SF-268 = details: Homo sapiens, SF-268;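 note: growth inhibition of SF-268 cells determined with a cell viability assay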
# Description: SANGER: Inhibition of human SF268 cell growth in a cell viability assay.
# SNB-75 = details: Homo sapiens, SNB-75;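 note: cell viability assay measuring growth inhibition of human SNB-75 cells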
# Description: SANGER: Inhibition of human SNB75 cell growth in a cell viability assay.
# BB49-HNC = details: Homo sapiens, BB49-HNC;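 note: cell viability assay read-out, reported as inhibition of BB49-HNC cell growth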
# Description: SANGER: Inhibition of human BB49-HNC cell growth in a cell viability assay.
# Becker = details: Homo sapiens, Becker;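 note: growth inhibition of Becker cells, read out with a cell viability assay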
# Description: SANGER: Inhibition of human Becker cell growth in a cell viability assay.
# C2BBe1 = details: Homo sapiens, C2BBe1;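 note: growth inhibition of C2BBe1 cells, read out through a viability assay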
# Description: SANGER: Inhibition of human C2BBe1 cell growth in a cell viability assay.
# TE-6 = details: Homo sapiens, TE-6;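 note: growth inhibition of TE-6 cells, read out with a cell viability assay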
# Description: SANGER: Inhibition of human TE-6 cell growth in a cell viability assay.
# TGBC24TKB = details: Homo sapiens, TGBC24TKB;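 note: growth inhibition of human TGBC24TKB cells, read out with a cell viability assay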
# Description: SANGER: Inhibition of human TGBC24TKB cell growth in a cell viability assay.
# no-10 = details: Homo sapiens;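 note: growth inhibition of no-10 cells, read out with a cell viability assay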
# Description: SANGER: Inhibition of human no-10 cell growth in a cell viability assay.
# CCRF-CEM = details: Homo sapiens, CCRF-CEM;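 note: inhibition of CCRF-CEM cell growth, measured by a cell viability assay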
# Description: SANGER: Inhibition of human CCRF-CEM cell growth in a cell viability assay.
# SK-LMS-1 = details: Homo sapiens, SK-LMS-1;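 note: growth inhibition of human SK-LMS-1 cells, read out with a cell viability assay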
# Description: SANGER: Inhibition of human SK-LMS-1 cell growth in a cell viability assay.
smiles,measurement,setting,value
COc1cc2c(Nc3ccc(NC(=O)c4ccccc4)cc3)ncnc2cc1OCCCN1CCOCC1,pIC50,COLO-824,< 5.40
same,pIC50,DEL,5.56
same,pIC50,DSH1,< 5.40
same,pIC50,DU-4475,< 5.40
same,pIC50,EW-13,< 5.40
same,pIC50,GCIY,< 5.40
same,pIC50,GI-1,5.49
same,pIC50,GOTO,< 5.40
same,pIC50,HCC2218,< 5.40
same,pIC50,IST-MES1,< 5.40
same,pIC50,IST-SL1,5.88
same,pIC50,J-RT3-T3-5,< 5.40
same,pIC50,K5,< 5.40
same,pIC50,KLE,< 5.40
same,pIC50,KP-N-YS,< 5.40
same,pIC50,KU812 cell line,< 5.40
same,pIC50,L-428,< 5.40
same,pIC50,LAMA-84,5.76
same,pIC50,LNCaP-Clone-FGC,< 5.40
same,pIC50,MMAC-SF,< 5.40
same,pIC50,MN-60,< 5.40
same,pIC50,MZ1-PC,< 5.40
same,pIC50,NB13,< 5.40
same,pIC50,NCI-H1355,< 5.40
same,pIC50,NCI-H1838,< 5.40
same,pIC50,NCI-H2126,< 5.40
same,pIC50,NCI-H226,< 5.40
same,pIC50,NCI-H82,< 5.40
same,pIC50,SNU1,5.51
same,pIC50,NH-12,5.48
same,pIC50,NKM-1,5.93
same,pIC50,OMC-1,< 5.40
same,pIC50,ONS-76,< 5.40
same,pIC50,OVCAR-4,< 5.40
same,pIC50,QIMR-WIL,5.69
same,pIC50,RCC10RGB,< 5.40
same,pIC50,RPMI-8866,< 5.40
same,pIC50,SF-268,< 5.40
same,pIC50,SNB-75,< 5.40
same,pIC50,BB49-HNC,< 5.40
same,pIC50,Becker,< 5.40
same,pIC50,C2BBe1,< 5.40
same,pIC50,TE-6,< 5.40
same,pIC50,TGBC24TKB,< 5.40
same,pIC50,no-10,< 5.40
same,pIC50,CCRF-CEM,5.73
CC(C)c1ccccc1Cc1cc(C(=O)Nc2ccc(S(=O)(=O)c3ccccc3C(C)(C)C)cc2)c(O)c(O)c1O,pIC50,COLO-824,6.16
same,pIC50,DSH1,6.29
same,pIC50,GCIY,7.68
same,pIC50,GI-1,6.89
same,pIC50,GOTO,6.77
same,pIC50,IST-MES1,6.67
same,pIC50,IST-SL1,6.36
same,pIC50,K5,5.75
same,pIC50,KLE,5.71
same,pIC50,LNCaP-Clone-FGC,6.27
same,pIC50,MMAC-SF,5.50
same,pIC50,MZ1-PC,6.20
same,pIC50,NB13,6.80
same,pIC50,NCI-H1355,5.89
same,pIC50,NCI-H1838,5.67
same,pIC50,NCI-H2126,6.11
same,pIC50,NCI-H226,5.61
same,pIC50,NH-12,6.76
same,pIC50,OMC-1,6.25
same,pIC50,ONS-76,6.49
same,pIC50,OVCAR-4,6.22
same,pIC50,RCC10RGB,4.86
same,pIC50,SF-268,6.57
same,pIC50,SK-LMS-1,6.57
same,pIC50,BB49-HNC,5.70
same,pIC50,Becker,6.62
same,pIC50,C2BBe1,6.57
same,pIC50,TE-6,4.61
same,pIC50,TGBC24TKB,6.64
same,pIC50,no-10,6.56
CC1(C)CNc2cc(NC(=O)c3cccnc3NCc3ccncc3)ccc21 [MOTESANIB],pIC50,COLO-824,< 5.70
same,pIC50,DEL,< 5.70
same,pIC50,DSH1,< 5.70
same,pIC50,DU-4475,< 5.70
same,pIC50,EW-13,< 5.70
same,pIC50,GCIY,< 5.70
same,pIC50,GI-1,< 5.70
same,pIC50,GOTO,< 5.70
same,pIC50,HCC2218,< 5.70
same,pIC50,IST-MES1,< 5.70
same,pIC50,IST-SL1,< 5.70
same,pIC50,J-RT3-T3-5,< 5.70
same,pIC50,K5,< 5.70
same,pIC50,KLE,< 5.70
same,pIC50,KP-N-YS,< 5.70
same,pIC50,KU812 cell line,< 5.70
same,pIC50,L-428,< 5.70
same,pIC50,LAMA-84,< 5.70
same,pIC50,LNCaP-Clone-FGC,< 5.70
same,pIC50,MMAC-SF,< 5.70
same,pIC50,MN-60,< 5.70
same,pIC50,MZ1-PC,< 5.70
same,pIC50,NB13,< 5.70
same,pIC50,NCI-H1355,< 5.70
same,pIC50,NCI-H1838,< 5.70
same,pIC50,NCI-H2126,< 5.70
same,pIC50,NCI-H226,< 5.70
same,pIC50,NCI-H82,< 5.70
same,pIC50,SNU1,< 5.70
same,pIC50,NH-12,< 5.70
same,pIC50,NKM-1,< 5.70
same,pIC50,OMC-1,< 5.70
same,pIC50,ONS-76,< 5.70
same,pIC50,OVCAR-4,< 5.70
same,pIC50,QIMR-WIL,< 5.70
same,pIC50,RCC10RGB,< 5.70
same,pIC50,RPMI-8866,< 5.70
same,pIC50,SF-268,< 5.70
same,pIC50,SNB-75,< 5.70
same,pIC50,BB49-HNC,< 5.70
same,pIC50,Becker,< 5.70
same,pIC50,C2BBe1,< 5.70
same,pIC50,TE-6,< 5.70
same,pIC50,TGBC24TKB,< 5.70
same,pIC50,no-10,< 5.70
same,pIC50,CCRF-CEM,< 5.70
CCN(CC)CCCCNc1ncc2cc(-c3cc(OC)cc(OC)c3)c(NC(=O)NC(C)(C)C)nc2n1 [PD-173074],pIC50,COLO-824,< 5.70
same,pIC50,DEL,< 5.70
same,pIC50,DSH1,< 5.70
same,pIC50,DU-4475,< 5.70
same,pIC50,EW-13,< 5.70
same,pIC50,GCIY,< 5.70
same,pIC50,GI-1,< 5.70
same,pIC50,GOTO,< 5.70
same,pIC50,HCC2218,< 5.70
same,pIC50,IST-MES1,< 5.70
same,pIC50,IST-SL1,< 5.70
same,pIC50,J-RT3-T3-5,< 5.70
same,pIC50,K5,< 5.70
same,pIC50,KLE,< 5.70
same,pIC50,KP-N-YS,< 5.70
same,pIC50,KU812 cell line,< 5.70
same,pIC50,L-428,< 5.70
same,pIC50,LAMA-84,< 5.70
same,pIC50,LNCaP-Clone-FGC,< 5.70
same,pIC50,MMAC-SF,< 5.70
same,pIC50,MN-60,< 5.70
same,pIC50,MZ1-PC,< 5.70
same,pIC50,NB13,< 5.70
same,pIC50,NCI-H1355,< 5.70
same,pIC50,NCI-H1838,< 5.70
same,pIC50,NCI-H2126,< 5.70
same,pIC50,NCI-H226,< 5.70
same,pIC50,NCI-H82,< 5.70
same,pIC50,SNU1,< 5.70
same,pIC50,NH-12,< 5.70
same,pIC50,NKM-1,< 5.70
same,pIC50,OMC-1,< 5.70
same,pIC50,ONS-76,< 5.70
same,pIC50,OVCAR-4,< 5.70
same,pIC50,QIMR-WIL,< 5.70
same,pIC50,RCC10RGB,< 5.70
same,pIC50,RPMI-8866,< 5.70
same,pIC50,SF-268,< 5.70
same,pIC50,SNB-75,< 5.70
same,pIC50,BB49-HNC,< 5.70
same,pIC50,Becker,< 5.70
same,pIC50,C2BBe1,< 5.70
same,pIC50,TE-6,< 5.70
same,pIC50,TGBC24TKB,< 5.70
same,pIC50,no-10,< 5.70
same,pIC50,CCRF-CEM,< 5.70
Cn1cnc2c(F)c(Nc3ccc(Br)cc3Cl)c(C(=O)NOCCO)cc21 [SELUMETINIB],pIC50,COLO-824,< 5.40
same,pIC50,DEL,< 5.40
same,pIC50,DSH1,< 5.40
same,pIC50,DU-4475,7.47
same,pIC50,EW-13,< 5.40
same,pIC50,GCIY,< 5.40
same,pIC50,GI-1,< 5.40
same,pIC50,GOTO,< 5.40
same,pIC50,HCC2218,5.60
same,pIC50,IST-MES1,< 5.40
same,pIC50,IST-SL1,< 5.40
same,pIC50,J-RT3-T3-5,< 5.40
same,pIC50,KLE,< 5.40
same,pIC50,KP-N-YS,< 5.40
same,pIC50,KU812 cell line,6.67
same,pIC50,L-428,< 5.40
same,pIC50,LAMA-84,6.34
same,pIC50,LNCaP-Clone-FGC,< 5.40
same,pIC50,MN-60,< 5.40
same,pIC50,MZ1-PC,5.48
same,pIC50,NB13,< 5.40
same,pIC50,NCI-H1355,< 5.40
same,pIC50,NCI-H226,< 5.40
same,pIC50,NCI-H82,< 5.40
same,pIC50,SNU1,5.75
same,pIC50,NH-12,< 5.40
same,pIC50,NKM-1,6.41
same,pIC50,OMC-1,< 5.40
same,pIC50,ONS-76,6.61
same,pIC50,OVCAR-4,< 5.40
same,pIC50,QIMR-WIL,5.87
same,pIC50,RCC10RGB,< 5.40
same,pIC50,RPMI-8866,< 5.40
same,pIC50,SF-268,< 5.40
same,pIC50,SNB-75,< 5.40
same,pIC50,BB49-HNC,< 5.40
same,pIC50,Becker,< 5.40
same,pIC50,C2BBe1,6.56
same,pIC50,TE-6,< 5.40
same,pIC50,TGBC24TKB,< 5.40
same,pIC50,no-10,< 5.40
same,pIC50,CCRF-CEM,< 5.40

# Reference: ChEMBL document CHEMBL1201861, “Genomics of Drug Sensitity in Cancer screening data, Wellcome Trust Sanger Institute”
